Experimental data published in patent publication US20110015226A1, “Treatment of Energy Utilization Disease” (SUMMIT CORPORATION PLC, priority 2008, published 2011).

Columns and labels:
Format in all cases: biochemical
α-D-glucosidase (Yeast) = biological target: T1, α-D-glucosidase (Yeast) (Saccharomyces cerevisiae, UniProt P53341); assay: Glycosidase inhibition: α-D-glucosidase (Yeast); details: compounds tested at 0.8 mM
T1 construct: purchased Sigma
Excerpt: (§1) The results tabulated below were obtained using commercially available glycosidases and p-nitrophenyl-substrates using standard methods described for example by Watson et al (1997) Phytochemistry 46 255-259. All enzymes and substrates were bought from Sigma. Enzyme and substrate solutions were made using sodium phosphate buffers at the pH optima values. The enzymes used were α-D-glucosidase Saccharomyces cerevisiae, Bacillus stearothermophilus, Oryzae sativa), β-D-glucosidase (Almond), α-D-mannosidase (Jack bean), α-D-galactosidase (Green coffee beans), β-D-galactosidase (Bovine liver), α-L-fucosidase (Bovine kidney), N-acetyl-β-D-glucosaminidase (Bovine kidney, Jack bean, Aspergillus oryzae), Naringinase (Penicillium decumbens) and amyloglucosidase (Aspergillus niger). All enzymes were used with the appropriate p-nitrophenyl substrates (5 mM). Amyloglucosidase activity was measured using amylopectin (0.1%) (Merck) mixed with sodium phosphate buffer, pH 4.5 in a glass bottle, and healed in a boiling water bath for 20 minutes to dissolve with released glucose measured using ‘Trinder’ glucose detection solution (Sigma).
(§2) All enzymes and para-nitrophenyl substrates were purchased from Sigma, with the exception of beta-mannosidase which came from Megazyme. Enzymes were assayed at 27° C. in 0.1M citric acid/0.2M disodium hydrogen phosphate buffers at the optimum pH for the enzyme. The incubation mixture consisted of 10 μl enzyme solution, 10 μl of 1 mg/ml aqueous solution of extract and 50 μl of the appropriate 5 mM para-nitrophenyl substrate made up in buffer at the optimum pH for the enzyme. The reactions were stopped by addition of 70 μl 0.4M glycine (pH 10.4) during the exponential phase of the reaction, which had been determined at the beginning using uninhibited assays in which water replaced inhibitor. Final absorbances were read at 405 nm using a Versamax microplate reader (Molecular Devices). Assays were carried out in triplicate, and the values given are means of the three replicates per assay. (See Watson, A. A., Nash, R. J., Wormald, M. R., Harvey, D. J., Dealler, S., Lees, E., Asano, N., Kizu, H., Kato, A., Griffiths, R. C., Cairns, A. J. and Fleet, G. W. J. (1997). Glycosidase-inhibiting pyrrolidine alkaloids from Hyacinthoides non-scripta. Phytochemistry 46 (2): 255-259.)

[1] = biological target: α-D-glucosidase (Bacillus) (Geobacillus stearothermophilus, UniProt A0ACH1E9U3); assay: Glycosidase inhibition: α-D-glucosidase (Bacillus); details: compounds tested at 0.8 mM
α-D-glucosidase (Bacillus), sequence (A0ACH1E9U3 entry or part of it): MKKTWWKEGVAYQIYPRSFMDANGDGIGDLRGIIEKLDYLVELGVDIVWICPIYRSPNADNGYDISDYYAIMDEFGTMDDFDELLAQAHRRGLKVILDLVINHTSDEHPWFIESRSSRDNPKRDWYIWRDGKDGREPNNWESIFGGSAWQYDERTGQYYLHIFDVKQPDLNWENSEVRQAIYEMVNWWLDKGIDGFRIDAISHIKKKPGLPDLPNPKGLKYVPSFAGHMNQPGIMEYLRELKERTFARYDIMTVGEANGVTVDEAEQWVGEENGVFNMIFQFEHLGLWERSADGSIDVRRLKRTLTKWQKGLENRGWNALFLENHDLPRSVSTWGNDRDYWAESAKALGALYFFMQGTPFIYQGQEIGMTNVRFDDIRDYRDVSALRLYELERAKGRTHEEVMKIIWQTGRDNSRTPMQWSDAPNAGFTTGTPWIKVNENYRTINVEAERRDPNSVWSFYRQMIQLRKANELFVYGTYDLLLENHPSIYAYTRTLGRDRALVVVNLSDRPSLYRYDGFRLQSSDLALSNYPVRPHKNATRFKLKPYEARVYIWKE
Excerpt: as §1, §2

α-D-glucosidase (Rice) = biological target: T2, α-D-glucosidase (Rice) (Oryza sativa subsp. japonica, UniProt Q653V7); assay: Glycosidase inhibition: α-D-glucosidase (Rice); details: for inhibition at 800 µM: compounds tested at 0.8 mM
T2 construct: purchased Sigma
T2 sequence (Q653V7 34-885): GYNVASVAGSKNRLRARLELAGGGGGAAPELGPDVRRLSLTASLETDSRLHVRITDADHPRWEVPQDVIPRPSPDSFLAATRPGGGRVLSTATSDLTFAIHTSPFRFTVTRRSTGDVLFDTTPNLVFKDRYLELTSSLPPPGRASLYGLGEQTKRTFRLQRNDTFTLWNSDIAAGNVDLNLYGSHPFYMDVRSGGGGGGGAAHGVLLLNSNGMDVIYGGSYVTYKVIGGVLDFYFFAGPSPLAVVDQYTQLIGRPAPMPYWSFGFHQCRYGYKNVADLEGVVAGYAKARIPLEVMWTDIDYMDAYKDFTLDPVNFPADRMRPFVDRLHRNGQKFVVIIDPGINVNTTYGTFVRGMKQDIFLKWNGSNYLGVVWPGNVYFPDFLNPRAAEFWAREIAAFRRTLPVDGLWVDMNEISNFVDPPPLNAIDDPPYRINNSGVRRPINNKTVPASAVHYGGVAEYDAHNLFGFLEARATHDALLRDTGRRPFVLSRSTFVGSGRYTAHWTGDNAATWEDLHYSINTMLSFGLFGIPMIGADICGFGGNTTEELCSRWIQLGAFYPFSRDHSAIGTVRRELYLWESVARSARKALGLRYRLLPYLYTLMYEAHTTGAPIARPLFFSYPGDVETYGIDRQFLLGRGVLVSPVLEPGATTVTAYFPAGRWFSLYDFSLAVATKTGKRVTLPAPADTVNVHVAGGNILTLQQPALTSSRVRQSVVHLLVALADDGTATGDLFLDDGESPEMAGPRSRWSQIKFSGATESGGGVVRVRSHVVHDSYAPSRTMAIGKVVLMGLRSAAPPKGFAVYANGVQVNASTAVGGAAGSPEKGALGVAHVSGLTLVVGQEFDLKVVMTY

β-D-glucosidase (Almond) = assay: Glycosidase inhibition: β-D-glucosidase (Almond); details: compounds tested at 0.8 mM
Excerpt: as §1
as §2, with “(See Watson, A. A., Nash, R. J., Wormald, M. R., Harvey, D. J., Dealler, S., Lees, E., Asano, N., Kizu, H., Kato, A., Griffiths, R. C., Cairns, A. J. and Fleet, G. W. J. (1997). Glycosidase-inhibiting pyrrolidine alkaloids from Hyacinthoides non-scripta. Phytochemistry 46 (2): 255-259.)” left out

[2] = biological target: T3, α-D-galactosidase Green coffee bean (Coffea arabica, UniProt Q42656); assay: Glycosidase inhibition: α-D-galactosidase Green coffee bean; details: compounds tested at 0.8 mM
T3 construct: α-D-galactosidase (Green coffee beans); purchased Sigma; host or cells: green coffee beans
T3 sequence (Q42656 16-378): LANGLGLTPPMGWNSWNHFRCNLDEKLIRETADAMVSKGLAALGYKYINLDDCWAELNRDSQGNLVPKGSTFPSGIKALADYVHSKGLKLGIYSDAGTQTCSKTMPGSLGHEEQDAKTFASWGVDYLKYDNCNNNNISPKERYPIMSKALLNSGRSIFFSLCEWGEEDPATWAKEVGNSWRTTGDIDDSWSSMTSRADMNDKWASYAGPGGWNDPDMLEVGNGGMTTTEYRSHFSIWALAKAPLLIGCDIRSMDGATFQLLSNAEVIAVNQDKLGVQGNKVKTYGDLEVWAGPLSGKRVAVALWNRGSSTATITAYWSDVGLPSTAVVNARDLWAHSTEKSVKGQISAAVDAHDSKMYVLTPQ
Excerpt: as §1, §2

[3] = tested on: β-D-galactosidase Bovine liver; assay: Glycosidase inhibition: β-D-galactosidase Bovine liver; details: compounds tested at 0.8 mM
Excerpt: as §1, §2

[4] = tested on: β-D-mannosidase Cellullomonas fimi; assay: Glycosidase inhibition: β-D-mannosidase Cellullomonas fimi; details: compounds tested at 0.8 mM
Method: as §2

[5] = tested on: Naringinase Penicillium decumbens; assay: Glycosidase inhibition: Naringinase Penicillium decumbens; details: compounds tested at 0.8 mM
Excerpt: as §1
as §2, with “(See Watson, A. A., Nash, R. J., Wormald, M. R., Harvey, D. J., Dealler, S., Lees, E., Asano, N., Kizu, H., Kato, A., Griffiths, R. C., Cairns, A. J. and Fleet, G. W. J. (1997). Glycosidase-inhibiting pyrrolidine alkaloids from Hyacinthoides non-scripta. Phytochemistry 46 (2): 255-259.)” left out

[6] = tested on: N-acetyl-β-D-glucosaminidase (Bovine kidney); assay: Glycosidase inhibition: N-acetyl-β-D-glucosaminidase (Bovine kidney); details: for % inhibition, N-acetyl-β-D-glucosaminidase (Bovine kidney): compounds tested at 0.8 mM;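 as to all read-outs here: enzyme activity followed by cleavage of the matching p-nitrophenyl glycoside (5 mM) in phosphate buffer set to the enzyme's optimal pH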
[7] = tested on: N-acetyl-β-D-glucosaminidase (Jack bean); assay: Glycosidase inhibition: N-acetyl-β-D-glucosaminidase (Jack bean); details: compounds tested at 0.8 mM
Excerpt: as §1
as §2, with “(See Watson, A. A., Nash, R. J., Wormald, M. R., Harvey, D. J., Dealler, S., Lees, E., Asano, N., Kizu, H., Kato, A., Griffiths, R. C., Cairns, A. J. and Fleet, G. W. J. (1997). Glycosidase-inhibiting pyrrolidine alkaloids from Hyacinthoides non-scripta. Phytochemistry 46 (2): 255-259.)” left out

[8] = biological target: T4, N-acetyl-β-D-glucosaminidase (A. oryzae) (Aspergillus oryzae, UniProt Q8J2T0); assay: Glycosidase inhibition: N-acetyl-β-D-glucosaminidase (A. oryzae); details: compounds tested at 0.8 mM
T4 construct: purchased Sigma
T4 sequence (Q8J2T0 97-600): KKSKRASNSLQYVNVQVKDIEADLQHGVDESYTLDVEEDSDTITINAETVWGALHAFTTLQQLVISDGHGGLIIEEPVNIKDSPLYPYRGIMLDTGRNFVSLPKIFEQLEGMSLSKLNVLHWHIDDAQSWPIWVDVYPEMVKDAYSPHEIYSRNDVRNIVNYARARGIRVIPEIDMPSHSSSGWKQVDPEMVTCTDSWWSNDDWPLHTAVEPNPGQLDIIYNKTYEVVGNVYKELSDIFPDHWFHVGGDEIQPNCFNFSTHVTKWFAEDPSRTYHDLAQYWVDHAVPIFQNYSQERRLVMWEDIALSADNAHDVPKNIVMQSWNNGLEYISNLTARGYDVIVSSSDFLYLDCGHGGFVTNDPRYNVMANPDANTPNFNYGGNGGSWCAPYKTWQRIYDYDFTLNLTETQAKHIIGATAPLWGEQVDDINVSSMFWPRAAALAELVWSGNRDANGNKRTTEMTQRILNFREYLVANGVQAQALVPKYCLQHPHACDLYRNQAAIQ
Excerpt: as §1, §2

[9] = biological target: T5, Amyloglucosidase Aspergillus niger (Aspergillus niger, UniProt P69328); assay: Glycosidase inhibition: Amyloglucosidase Aspergillus niger; details: compounds tested at 0.8 mM
T5 construct: purchased Sigma
T5 sequence (P69328 25-640): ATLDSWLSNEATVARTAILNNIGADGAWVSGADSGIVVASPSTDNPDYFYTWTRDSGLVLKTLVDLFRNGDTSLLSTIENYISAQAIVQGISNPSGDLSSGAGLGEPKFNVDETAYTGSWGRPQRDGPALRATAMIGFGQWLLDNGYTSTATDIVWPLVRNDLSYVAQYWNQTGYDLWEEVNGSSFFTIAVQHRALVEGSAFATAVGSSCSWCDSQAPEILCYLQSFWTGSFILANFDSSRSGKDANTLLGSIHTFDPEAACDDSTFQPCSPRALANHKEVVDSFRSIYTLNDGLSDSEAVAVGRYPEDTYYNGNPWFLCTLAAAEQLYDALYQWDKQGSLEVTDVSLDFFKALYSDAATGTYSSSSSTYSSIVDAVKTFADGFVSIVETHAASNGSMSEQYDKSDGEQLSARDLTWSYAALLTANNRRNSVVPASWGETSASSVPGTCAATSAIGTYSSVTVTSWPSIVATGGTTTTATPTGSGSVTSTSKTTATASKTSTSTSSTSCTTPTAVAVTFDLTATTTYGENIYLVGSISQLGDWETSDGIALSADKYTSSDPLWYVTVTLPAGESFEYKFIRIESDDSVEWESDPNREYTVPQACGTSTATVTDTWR
Excerpt: as §1, §2

[10] = biological target: T6, β-Glucuronidase Bovine liver (Bos taurus, UniProt A3KMY8); assay: Glycosidase inhibition: β-Glucuronidase Bovine liver;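 also: bovine liver β-glucuronidase acting on p-nitrophenyl β-D-glucuronide substrate in citric acid/disodium hydrogen phosphate buffer, pH 5.0, 27 °C, mean of triplicate runs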
T6 construct: The assay involved the use of Bovine liver β-glucuronidase; purchased Sigma; host or cells: bovine liver
T6 sequence (A3KMY8 1-652): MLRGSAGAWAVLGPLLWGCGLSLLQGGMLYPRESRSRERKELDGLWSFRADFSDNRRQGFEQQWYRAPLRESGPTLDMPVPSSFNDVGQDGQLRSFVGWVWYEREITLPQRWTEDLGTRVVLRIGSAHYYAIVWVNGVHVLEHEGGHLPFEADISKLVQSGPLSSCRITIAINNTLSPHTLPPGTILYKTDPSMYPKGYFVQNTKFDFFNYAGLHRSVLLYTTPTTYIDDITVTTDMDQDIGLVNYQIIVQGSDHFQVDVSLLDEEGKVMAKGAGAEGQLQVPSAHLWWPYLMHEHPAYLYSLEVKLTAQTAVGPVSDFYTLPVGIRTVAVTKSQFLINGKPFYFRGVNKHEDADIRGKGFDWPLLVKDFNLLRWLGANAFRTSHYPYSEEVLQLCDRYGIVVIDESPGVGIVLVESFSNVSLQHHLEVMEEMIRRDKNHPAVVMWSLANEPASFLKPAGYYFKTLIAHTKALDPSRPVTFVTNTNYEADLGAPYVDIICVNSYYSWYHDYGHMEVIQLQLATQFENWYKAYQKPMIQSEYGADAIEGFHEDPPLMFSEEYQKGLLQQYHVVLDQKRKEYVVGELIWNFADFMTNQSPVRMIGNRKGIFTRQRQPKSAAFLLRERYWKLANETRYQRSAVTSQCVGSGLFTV

[11] = biological target: T7, α-L-fucosidase Bovine kidney (Bos taurus, UniProt Q2KIM0); assay: Glycosidase inhibition: α-L-fucosidase Bovine kidney; details: compounds tested at 0.8 mM
T7 construct: α-L-fucosidase (Bovine kidney); purchased Sigma; host or cells: bovine kidney
T7 sequence (Q2KIM0 23-468): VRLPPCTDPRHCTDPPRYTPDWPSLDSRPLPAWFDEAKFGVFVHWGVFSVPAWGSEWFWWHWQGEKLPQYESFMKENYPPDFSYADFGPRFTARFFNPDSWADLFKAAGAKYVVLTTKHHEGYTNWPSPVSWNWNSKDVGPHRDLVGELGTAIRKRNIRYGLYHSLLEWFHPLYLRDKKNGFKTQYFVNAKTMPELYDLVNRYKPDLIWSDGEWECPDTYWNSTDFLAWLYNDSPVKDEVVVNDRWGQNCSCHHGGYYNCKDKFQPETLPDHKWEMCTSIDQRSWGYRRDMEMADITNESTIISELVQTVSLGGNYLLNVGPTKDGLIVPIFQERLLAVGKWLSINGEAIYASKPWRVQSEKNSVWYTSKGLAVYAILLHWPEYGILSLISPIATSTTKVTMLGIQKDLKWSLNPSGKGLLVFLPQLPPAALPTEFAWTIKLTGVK

[12] = biological target: T8, α-D-mannosidase Jack bean (Canavalia ensiformis, UniProt C0HJB3); assay: Glycosidase inhibition: α-D-mannosidase Jack bean; details: compounds tested at 0.8 mM
T8 construct: α-D-mannosidase (Jack bean); purchased Sigma
T8 sequence (C0HJB3 1-981): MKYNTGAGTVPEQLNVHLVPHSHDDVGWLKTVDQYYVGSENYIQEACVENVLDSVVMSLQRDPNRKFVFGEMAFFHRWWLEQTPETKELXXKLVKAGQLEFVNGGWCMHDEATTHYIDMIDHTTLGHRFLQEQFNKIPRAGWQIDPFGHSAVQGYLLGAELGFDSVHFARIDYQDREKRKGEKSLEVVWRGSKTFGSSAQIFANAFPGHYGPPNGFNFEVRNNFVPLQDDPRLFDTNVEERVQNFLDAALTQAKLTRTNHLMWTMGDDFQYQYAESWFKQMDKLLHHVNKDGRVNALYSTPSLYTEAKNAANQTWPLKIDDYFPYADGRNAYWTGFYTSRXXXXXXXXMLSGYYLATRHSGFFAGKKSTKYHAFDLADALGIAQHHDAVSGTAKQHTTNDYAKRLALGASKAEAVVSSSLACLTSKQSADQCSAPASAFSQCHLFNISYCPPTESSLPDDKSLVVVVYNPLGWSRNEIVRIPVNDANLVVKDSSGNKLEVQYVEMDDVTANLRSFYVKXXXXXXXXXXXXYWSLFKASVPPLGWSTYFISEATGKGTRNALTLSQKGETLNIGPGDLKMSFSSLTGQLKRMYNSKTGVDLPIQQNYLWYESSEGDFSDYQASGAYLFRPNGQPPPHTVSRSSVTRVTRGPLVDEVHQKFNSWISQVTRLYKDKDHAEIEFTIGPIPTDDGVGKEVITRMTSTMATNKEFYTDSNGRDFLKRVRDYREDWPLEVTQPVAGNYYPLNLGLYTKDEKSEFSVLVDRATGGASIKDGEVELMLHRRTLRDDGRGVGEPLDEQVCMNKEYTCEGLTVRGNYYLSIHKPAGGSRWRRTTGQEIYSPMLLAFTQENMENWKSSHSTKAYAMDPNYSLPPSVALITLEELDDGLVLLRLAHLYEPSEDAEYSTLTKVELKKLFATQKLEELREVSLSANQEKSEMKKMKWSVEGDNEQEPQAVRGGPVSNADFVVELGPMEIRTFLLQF

T1 sequence (P53341 whole entry): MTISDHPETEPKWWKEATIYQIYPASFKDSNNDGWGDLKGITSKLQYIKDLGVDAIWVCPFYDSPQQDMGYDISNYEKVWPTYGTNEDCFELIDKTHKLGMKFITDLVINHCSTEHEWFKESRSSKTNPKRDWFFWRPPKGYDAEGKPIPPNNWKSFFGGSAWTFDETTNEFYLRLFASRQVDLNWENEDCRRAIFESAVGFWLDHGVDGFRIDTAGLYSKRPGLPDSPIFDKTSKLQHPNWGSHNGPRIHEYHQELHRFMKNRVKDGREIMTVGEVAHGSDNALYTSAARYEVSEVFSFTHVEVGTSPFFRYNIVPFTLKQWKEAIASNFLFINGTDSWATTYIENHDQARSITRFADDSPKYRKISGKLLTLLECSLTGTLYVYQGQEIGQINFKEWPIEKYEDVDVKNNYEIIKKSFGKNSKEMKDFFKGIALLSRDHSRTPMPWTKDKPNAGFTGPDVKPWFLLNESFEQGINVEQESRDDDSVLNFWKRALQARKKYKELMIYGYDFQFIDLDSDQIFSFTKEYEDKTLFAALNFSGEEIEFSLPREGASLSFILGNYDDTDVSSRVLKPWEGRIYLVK

| SMILES | inhibition at 800 µM (α-D-glucosidase (Yeast)) | inhibition at 800 µM [1] | inhibition at 800 µM (α-D-glucosidase (Rice)) | % inhibition, β-D-glucosidase (Almond) (β-D-glucosidase (Almond)) | inhibition at 800 µM [2] | % inhibition, β-D-galactosidase Bovine liver [3] | % inhibition, β-D-mannosidase Cellullomonas fimi [4] | % inhibition, Naringinase Penicillium decumbens [5] | % inhibition, N-acetyl-β-D-glucosaminidase (Bovine kidney) [6] | % inhibition, N-acetyl-β-D-glucosaminidase (Jack bean) [7] | inhibition at 800 µM [8] | inhibition at 800 µM [9] | inhibition at 800 µM ([10]; compounds tested at 0.8 mM) | IC50 (α-D-glucosidase (Rice); read-out: IC50, α-D-glucosidase (Rice)) | inhibition at 800 µM [11] | inhibition at 800 µM [12] | IC50 ([6]; read-out: IC50, N-acetyl-β-D-glucosaminidase (Bovine kidney)) | IC50 ([10]; pH 5.0, 27° C., p-nitrophenyl β-D-glucuronide, read-out: IC50, β-Glucuronidase Bovine liver) |
| --- | --- | --- | --- | --- | --- | --- | --- | --- | --- | --- | --- | --- | --- | --- | --- | --- | --- | --- |
| OCCN1C[C@H](O)[C@@H](O)[C@H](O)[C@H]1CO [Miglitol, reference compound] | < 5% | 83% | 100% | 99% | 19% | 87% | NI (NI = no inhibition) | 26% | NI (NI = no inhibition) | NI (NI = no inhibition) | < 5% | 78% | < 5% |  |  |  |  |  |
| O=C(O)CN1C[C@H](O)[C@@H](O)[C@H](O)[C@H]1CO [Compound G6, 2-((2R,3R,4R,6S)-3,4,5-Trihydroxy-2-(hydroxymethyl)piperidin-1-yl)acetic acid] | < 50% | < 50% | 99.7% |  | < 50% |  |  |  | 83.6% |  | < 50% | < 50% |  | 1 µM | < 50% | < 50% | 10.4 µM | 80 µM |
